The text below walks through data of patent US20220363662A1, “COMPOUNDS AS LXR AGONISTS” (Integral Biosciences Privated Limited, priority 2021, published 2022).

Where only a bound is given, the exact number is not on record here.

Assay [1] relates to HepG2. The assay can be described thus: Cell viability assay (resazurin) in HepG2. The assay is classed as cell-based. The settings on record: Homo sapiens, 96 hr exposure. The protocol: (§1) HepG2 (ATCC® HB-8065™), hepatocellular carcinoma, A549 (ATCC® CCL-185™), lung epithelial carcinoma, MCF7 (ATCC® HTB-22™), mammary gland epithelial carcinoma, MDA-MB-231 (ATCC® HTB-26™), TNBC, MiaPaCa-2 (ATCC® CRL-1420™) & Panc-1 (ATCC® CRL-1469™), pancreatic epithelial carcinoma, HCT116 (ATCC® CCL-247™), colon epithelial carcinoma and U87MG (ATCC® HTB-14™), brain epithelial carcinoma cell lines respectively were seeded in the respective medium (DMEM, Cat #10569044 with 10% FBS, Cat #16000044; Gibco for HepG2, A549, MCF7, MDA-MB-231, MiaPaCa-2, Panc-1, HCT116 and MEM, Cat #11095080 with 10% FBS for U87MG). Cells were allowed to grow at 37° C. for 24 hr in 5% CO2 (culture conditions) in a Nuaire incubator (humidified). Serially diluted compounds (100 μl) were added to the culture plate 24 hr later and the cultures were further incubated in culture conditions for 96 hr. Experiment was terminated at the completion of 96 hr exposure to the drug by replacing the medium with 100 μl of 1 mM of resazurin (R7017; Sigma) prepared in culture medium and the plates were further incubated in culture conditions for 4 hr. Fluorescence was then measured using a multimodal plate reader (Biotek Synergy Neo) at an excitation wavelength of 535 nm and emission wavelength of 590 nm to obtain relative fluorescence units. Data analysis was done by subtracting the background fluorescence (only medium blank) value from each reading and then normalizing with the vehicle control (DMSO treated cells) to obtain percent survival/proliferation. Percent survival at different doses was used to calculate IC50 by fitting the curve to the “four-parameter variable slope logistic model” using Prism Graph Pad.

Assay [2] concerns the target T1, LXR beta (Homo sapiens, UniProt P55055).
T1 construct: 5 μL of 4×LXR beta-LBD was added to each well (final concentration 5 nM); purchased Thermofisher PV4658
T1 sequence (P55055 222-460 limits assumed): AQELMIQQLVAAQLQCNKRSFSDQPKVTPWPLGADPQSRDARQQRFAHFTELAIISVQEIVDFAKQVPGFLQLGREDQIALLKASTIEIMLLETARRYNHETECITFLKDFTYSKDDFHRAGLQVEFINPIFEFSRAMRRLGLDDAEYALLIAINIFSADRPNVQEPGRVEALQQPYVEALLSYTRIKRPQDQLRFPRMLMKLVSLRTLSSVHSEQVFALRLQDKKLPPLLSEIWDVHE
The experiment in a line: LXR beta agonist assay (Lanthascreen TR-FRET). Format: biochemical. The settings on record: LXR beta-LBD 5 nM, read-out: LXR-β EC50. The procedure: EC50 values of compounds against LXR beta were determined at Integral BioSciences (India) using Lanthascreen TR-FRET (Thermofisher, Cat #PV4658). Assay was performed in a 20 μL final volume in a Black 384-well plate (Corning, Cat #4511). Dose response curve for the compounds were prepared in duplicates with starting concentration at 30 μM and a three-fold titration was performed. The reaction buffer consisted of TR-FRET Coregulator Buffer G. To the compound dilution, 5 μL of 4×LXR beta-LBD was added to each well (final concentration 5 nM). An equal volume (5 μL) containing 4×Fl-D22/Tb-anti GST antibody (final concentration 100 nM/10 nM) was added to initiate the enzyme reaction and the reaction was incubated for 60 min at 22° C. after which the plates were read using BioTek Plate reader for TR-FRET every hour up to 4 hours.
Analysis was done using the standard curve by non-linear regression, variable slope inhibitor curve fits (Graph-Pad Prism) and EC50's of compounds were determined wherever possible.

Assay [3] has as its system A549. The experiment in a line: Cell viability assay (resazurin) in A549. The settings on record: Homo sapiens, 96 hr exposure. Format: cell-based. The procedure:
as §1

In assay [4] the test system is HCT116. The experiment in a line: Cell viability assay (resazurin) in HCT116. Format: cell-based. As to conditions: Homo sapiens, HCT-116; 96 hr exposure. The protocol:
as §1

The test system of assay [5] is THP1. The experiment in a line: Cell viability assay in THP1. The settings on record: Homo sapiens, THP-1. The assay is classed as cell-based.
Assay [6] has as its system MDA-MB-231. The experiment in a line: Cell viability assay (resazurin) in MDA-MB-231. The assay is classed as cell-based. As to conditions: Homo sapiens, 96 hr exposure, read-out: MDA_MB-231 Cell IC50. The protocol: as §1

As to `CN(C)C(=O)c1ccc(N[C@@H]2CCCN(C3CCN(C(=O)[C@](O)(c4ccccc4)C(F)(F)F)CC3)C2)cc1Cl` [Compound 1.71, 2-chloro-N,N-dimethyl-4-((R)-1′-((R)-3,3,3-trifluoro-2-hydroxy-2-phenylpropanoyl)-1,4′-bipiperidin-3-ylamino)benzamide], the concentration for half-maximal inhibition (IC50) in assay [1] was more than 29.4 µM. Moreover, the EC50 in assay [2] is 1.18 µM.
In the same order, the values of `CC(C)C(O)(C(=O)N1CCC(N2CCC3(CC2)CN(c2ccc(C(=O)N(C)C)c(Cl)c2)C3)CC1)C(F)(F)F` (stereo not shown) [Compound 1.78, 2-chloro-4-(7-(1-(2-hydroxy-3-methyl-2-(trifluoromethyl)butanoyl)piperidin-4-yl)-2,7-diazaspiro[3.5]nonan-2-yl)-N,N-dimethylbenzamide] are more than 30 µM and more than 30 µM.
In the same order, the values of `CN(C)C(=O)c1ccc(N2CC3(CCN(C4CCN(C(=O)[C@](O)(c5ccccc5)C(F)(F)F)CC4)CC3)C2)cc1Cl` [Compound 1.75, 2-chloro-N,N-dimethyl-4-(7-(1-((R)-3,3,3-trifluoro-2-hydroxy-2-phenylpropanoyl)piperidin-4-yl)-2,7-diazaspiro[3.5]nonan-2-yl)benzamide] are more than 30 µM and more than 30 µM.
In the case of `CN(C)C(=O)c1ccc(NC2CCN(C3CCN(C(=O)[C@](O)(c4ccccc4)C(F)(F)F)CC3)CC2)cc1Cl` [Compound 1.47, (R)-2-chloro-N,N-dimethyl-4-(1′-(3,3,3-trifluoro-2-hydroxy-2-phenylpropanoyl)-1,4′-bipiperidin-4-ylamino)benzamide], the IC50 in assay [3], in assay [4], in assay [5] and in assay [6] was more than 30 µM throughout. Moreover, the EC50 in assay [2] is 2.91 µM.
Turning to `CN(C)C(=O)c1ccc(O[C@H]2CCN(C3CCN(C(=O)[C@](O)(c4ccccc4)C(F)(F)F)CC3)C2)cc1Cl` [Compound 1.76, 2-chloro-N,N-dimethyl-4-((S)-1-(1-((R)-3,3,3-trifluoro-2-hydroxy-2-phenylpropanoyl)piperidin-4-yl)pyrrolidin-3-yloxy)benzamide], the IC50 in assay [1] is more than 30 µM. The EC50 in assay [2] is more than 29.8 µM.
Take `CN(C)C(=O)c1ccc(NC2CN(C3CCN(C(=O)C4(c5ccccc5)CCC4)CC3)C2)cc1Cl` [Compound 1.48, 2-chloro-N,N-dimethyl-4-(1-(1-(1-phenylcyclobutanecarbonyl)piperidin-4-yl)azetidin-3-ylamino)benzamide]: the IC50 in assay [3] was 19.8 µM; in assay [4], 12.2 µM; in assay [5], more than 30 µM; in assay [6] it was more than 30 µM.
As for `CN(C)C(=O)c1ccc(N2CCC(N3CC4(CCN(C(=O)[C@](O)(c5ccccc5)C(F)(F)F)CC4)C3)CC2)cc1Cl` [Compound 1.79, 2-chloro-N,N-dimethyl-4-(4-(7-((R)-3,3,3-trifluoro-2-hydroxy-2-phenylpropanoyl)-2,7-diazaspiro[3.5]nonan-2-yl)piperidin-1-yl)benzamide], the IC50 in assay [1] turned out to be 26.6 µM. Further, in assay [2], the concentration for a half-maximal effect (EC50) turned out to be 4.3 µM.
With `CN(C)C(=O)c1ccc(NC2CN(C3CCN(C(=O)C(C)(C)c4ccccc4)CC3)C2)cc1Cl` [Compound 1.41, 2-chloro-N,N-dimethyl-4-(1-(1-(2-methyl-2-phenylpropanoyl)piperidin-4-yl)azetidin-3-ylamino)benzamide], the half-maximal inhibitory concentration (IC50) in assay [3], in assay [4], in assay [5] and in assay [6] was more than 30 µM each time. For the same compound, the EC50 in assay [2] was 5.75 µM.
With `CN(C)C(=O)c1ccc(N(C)C2CN(C3CCN(C(=O)[C@](O)(c4ccccc4)C(F)(F)F)CC3)C2)cc1Cl` [Compound 1.32, (R)-2-chloro-N,N-dimethyl-4-(methyl(1-(1-(3,3,3-trifluoro-2-hydroxy-2-phenylpropanoyl)piperidin-4-yl)azetidin-3-yl)amino)benzamide], the 50% effective concentration (EC50) in assay [2] stood at 7.23 µM.
Consider `CC(C)[C@@](O)(C(=O)N1CCC2(CC1)CN(C1CCN(c3ccc(C(=O)N(C)C)c(Cl)c3)CC1)C2)C(F)(F)F` (single isomer, unassigned) [Compound 1.73], for which, in assay [1], the IC50 was more than 30 µM. Moreover, the EC50 in assay [2] worked out at 1.41 µM.
On to `CN(C)C(=O)c1ccc(-c2nnc(C3=CCN(C(=O)C4CCC(F)(F)CC4)CC3)s2)cc1Cl` [Compound 1.60, 2-chloro-4-(5-(1-(4,4-difluorocyclohexanecarbonyl)-1,2,3,6-tetrahydropyridin-4-yl)-1,3,4-thiadiazol-2-yl)-N,N-dimethylbenzamide], for which the EC50 in assay [2] is 1.51 µM.
On the same count and under the same terms, as for `CN(C)C(=O)c1ccc(NC2CN(C3CCN(C(=O)[C@@](O)(c4cccc(Cl)c4)C(F)(F)F)CC3)C2)cc1Cl` (single isomer, unassigned) [Compound 1.118], the figure is 0.241 µM.
For the compound `CN(C)C(=O)c1ccc(O[C@@H]2CCN(C3CCN(C(=O)[C@](O)(c4ccccc4)C(F)(F)F)CC3)C2)cc1Cl` [Compound 1.72, 2-chloro-N,N-dimethyl-4-((R)-1-(1-((R)-3,3,3-trifluoro-2-hydroxy-2-phenylpropanoyl)piperidin-4-yl)pyrrolidin-3-yloxy)benzamide], in assay [1], the IC50 is more than 30 µM. Besides, the EC50 in assay [2] was 5.37 µM.
On to `CC(=O)N1CCN(C(=O)c2ccc(NC3CN(C4CCN(C(=O)C(O)(c5ccccc5)C(F)(F)F)CC4)C3)cc2Cl)CC1` (stereo not shown) [Compound 1.103, 1-(4-(3-((4-(4-acetylpiperazine-1-carbonyl)-3-chlorophenyl)amino)azetidin-1-yl)piperidin-1-yl)-3,3,3-trifluoro-2-hydroxy-2-phenylpropan-1-one], for which the EC50 in assay [2] was more than 30 µM.
Same read-out and setting: as for `COc1cccc(C2(C(=O)N3CC=C(c4nnc(-c5ccc(C(=O)N(C)C)c(Cl)c5)s4)CC3)CCCC2)c1` [Compound 1.64, 2-chloro-4-(5-(1-(1-(3-methoxyphenyl)cyclopentanecarbonyl)-1,2,3,6-tetrahydropyridin-4-yl)-1,3,4-thiadiazol-2-yl)-N,N-dimethylbenzamide], the figure is more than 30 µM.
On the same count and under the same terms, in the case of `CN(C)C(=O)c1ccc(-c2ccn(C3CCN(C(=O)C(O)(c4ccccc4)C(F)(F)F)CC3)c(=O)c2)cc1Cl` (stereo not shown) [Compound 1.27, 2-chloro-N,N-dimethyl-4-(2-oxo-1-(1-(3,3,3-trifluoro-2-hydroxy-2-phenylpropanoyl)piperidin-4-yl)-1,2-dihydropyridin-4-yl)benzamide] it was more than 30 µM.
`O=C(c1ccc(NC2CN(C3CCN(C(=O)C(O)(c4ccccc4)C(F)(F)F)CC3)C2)cc1Cl)N1CCCCC1` (stereo not shown) [Compound 1.89, 1-(4-(3-(3-chloro-4-(piperidine-1-carbonyl)phenylamino)azetidin-1-yl)piperidin-1-yl)-3,3,3-trifluoro-2-hydroxy-2-phenylpropan-1-one]: in assay [2], the EC50 was more than 30 µM.
Same read-out and setting: as for `CN(C)C(=O)c1ccc(NC2CN(C3CCN(C(=O)C45CC(C4)C5)CC3)C2)cc1Cl` [Compound 1.69, 4-(1-(1-(bicyclo[1.1.1]pentane-1-carbonyl)piperidin-4-yl)azetidin-3-ylamino)-2-chloro-N,N-dimethylbenzamide], the figure is 3.79 µM.
`CN(C)C(=O)c1ccc(-c2cncc(C3=CCN(S(=O)(=O)c4ccccc4Cl)CC3)c2)cc1Cl` [Compound 1.39, 2-chloro-4-(5-(1-(2-chlorophenylsulfonyl)-1,2,3,6-tetrahydropyridin-4-yl)pyridin-3-yl)-N,N-dimethylbenzamide]: the IC50 in assay [3], in assay [4], in assay [5] and in assay [6] was more than 30 µM each time.
